# Entries after “also recorded” stand apart in the source; their conditions may differ. Where a name gives a salt, the structure may show the parent alone. Positions of bridges follow the written chain, without caps; N, C: chain ends. Non-standard residues stand in square brackets, D forms with d. Residues, ends and D or L forms follow the SMILES beside them. hArg = N=C(N)NCCCC[C@H](N)C(=O)O; Mpa = O=C(O)CCS
# B1: hu5C8 (IgG2σ): IgG2σ variant of hu5C8 with engineered Fc region that eliminates affinity for FcγRIIa (antibody, chains of the INN, looked up, V domains shown)
# VH: QVQLVQSGAEVVKPGASVKLSCKASGYIFTSYYMYWVKQAPGQGLEWIGEINPSNGDTNFNEKFKSKATLTVDKSASTAYMELSSLRSEDTAVYYCTRSDGRNDMDSWGQGTLVTVSS
# VL: DIVLTQSPATLSVSPGERATISCRASQRVSSSTYSYMHWYQQKPGQPPKLLIKYASNLESGVPARFSGSGSGTDFTLTISSVEPEDFATYYCQHSWEIPPTFGGGTKLEIK
# modifications: IgG2σ engineered Fc lacking FcγRIIa binding
# Key:
# Type in all cases: cell-based, human
# fibrin = assay: Vessel-On-Chip blood perfusion: fibrin deposition by fluorescent fibrinogen imaging; details: for fibrin deposition on the endothelium compared to untreated blood: hu5C8 240 μg/mL, sCD40L 10 ng/ml, alone or combined, 4 donors, 60 μl/minute
# Procedure: (§1) Briefly, human blood was drawn in citrate buffer and used within 4 hours. Platelets were stained using fluorescently labeled non-blocking antibodies for the platelet surface marker CD41 and low dosages of fluorescent fibrinogen were added in order to visualize fibrin deposition. Blood was re-calcified in order to re-establish the full coagulation potential, then introduced in the biomimetic vessel-on-chip from the main inlet (embodiments of inlets shown in FIG. 18A-1, FIG. 18A-2 and FIG. 19C). The outlet of the chip was connected to a pulling syringe pump with a system of tubing and connectors made of medical grade silicon that excludes any metal components or potential causes of platelet activation (FIG. 5A).
# (§2) After 14 minutes of perfusion, the flow was interrupted and the chips were immediately imaged via fluorescence microscopy (FIG. 18C and FIG. 19D). In healthy conditions, endothelial cells will provide an antithrombotic surface where blood can flow smoothly, and indeed we detected minimal platelet adhesion or fibrin deposition in our vessel-on-chip after blood perfusion in control conditions, FIG. 18C, Blood.
# Cell-monolayer integrity: Transmission light microscopy was routinely used to assess cell-monolayer integrity prior to each experiment. Before every experiment, each one of the endothelialized channels was inspected via light microscopy. Samples showing any sign of discontinuity in the endothelium were discarded. Vascular leakage assay as test for tissue integrity: The ability of cells to form a confluent monolayer was monitored for one week measuring vascular leakage of dextran (ThermoFisher). In order to measure vascular leakage the vascular channel was perfused with cell culture medium containing fluorescent dextran-cascade blue (3 kDa, ThermoFisher). The apical compartment was perfused with plain medium (without FBS). At various time points, the effluent from the chip was collected, and the relative fluorescence of the top and bottom compartments were measured using a standard plate reader. […] TNF-alpha Stimulation: In some experiment endothelial cells were stimulate with 50 ng/ml of TNF (Sigma) for 6 hours in order to induce vascular inflammation before blood perfusion. Experiments with Blood: Blood Samples And Endothelium: Citrated human blood (Research Blood Components, Cambridge, Mass.) was used within 4 hours of a blood draw in order to minimize pre-analytical effects on platelet function. Before every experiment, each one of the endothelialized channels (i.e. microchannels having an endothelial cell layer) was inspected via light microscopy. Samples showing any sign of discontinuity in the endothelium were discarded. […] USA) was at room temperature for 20 minutes. […]
# platelets = assay: Vessel-On-Chip blood perfusion: platelet coverage/aggregation by fluorescence imaging (CD41 label); details: for platelet aggregate formation compared to untreated blood: hu5C8 240 μg/mL, sCD40L 10 ng/ml, alone or combined, 4 donors, 60 μl/minute
# Procedure: as §1, §2
# Cell-monolayer integrity: Transmission light microscopy was routinely used to assess cell-monolayer integrity prior to each experiment. Before every experiment, each one of the endothelialized channels was inspected via light microscopy. Samples showing any sign of discontinuity in the endothelium were discarded. Vascular leakage assay as test for tissue integrity: The ability of cells to form a confluent monolayer was monitored for one week measuring vascular leakage of dextran (ThermoFisher). In order to measure vascular leakage the vascular channel was perfused with cell culture medium containing fluorescent dextran-cascade blue (3 kDa, ThermoFisher). The apical compartment was perfused with plain medium (without FBS). At various time points, the effluent from the chip was collected, and the relative fluorescence of the top and bottom compartments were measured using a standard plate reader. […] TNF-alpha Stimulation: In some experiment endothelial cells were stimulate with 50 ng/ml of TNF (Sigma) for 6 hours in order to induce vascular inflammation before blood perfusion. Experiments with Blood: Blood Samples And Endothelium: Citrated human blood (Research Blood Components, Cambridge, Mass.) was used within 4 hours of a blood draw in order to minimize pre-analytical effects on platelet function. Before every experiment, each one of the endothelialized channels (i.e. microchannels having an endothelial cell layer) was inspected via light microscopy. Samples showing any sign of discontinuity in the endothelium were discarded. […] USA) was at room temperature for 20 minutes. Cloning, Expression and Purification: Generation of IgG2σ was previously described (Vafa, O. et al. An engineered Fc variant of an IgG eliminates all immune effector functions via structural perturbations. Methods 65:114-126 (2014)). 5c8 human IgG1 and human IgG2-Sigma Fc variants were produced in Sino Biological Inc. Gene fragments encoding the 5c8 heavy and light chains were synthesized and cloned into mammalian expression vectors. DNA was produced and used in transient transfections with HEK293. Antibodies were purified using Protein A affinity chromatography and formulated in phosphate-buffered saline (DPBS), pH 7.4. Blood Pre-treatment and Perfusion: Formation of IC (preformed IC): Hu5C8, IgG2σ (control) (both provided by Janssen or provided as described herein) For studies with preformed IC, Hu5C8 or IgG2σ as an isotype control were combined with sCD40L (Tonbo Biosciences, San Diego, Calif.) in PBS, in a ratio of 1 molecule of sCD40L to 3000 molecules of antibody. After 20 minutes incubation at room temperature, the solution was diluted in a blood sample to reach the final concentration of 240 μg/ml (Hu5C8) and 10 ng/ml (sCD40L). […]
# re-calcified blood = assay: On-chip anticoagulation of outflowing re-calcified blood through the anticoagulant port; details: sodium citrate introduced through the anticoagulant port next to the outflow port
# Source text: In order to functionally test the system, re-calcified blood was perfused through the inlet while anticoagulant, e.g. citrate buffer, was introduced online from the port situated next to the outflow port. Thus, blood obtained from the effluent of chips equipped with the anticoagulant port or without anticoagulant port were compared (FIG. 6). From a qualitative point of view the difference was striking.
# In order to functionally test the additive channel (i.e. microfluidic chamber(s)) attached to the outflow port of a Vessel-On-Chip, re-calcified blood was perfused through the inlet port while citrate was introduced online from a port situated next to the outflow port, flowing through the additive channel. Thus, blood obtained from the effluent of chips equipped with the anticoagulant port (additive channel) or without anticoagulant port were compared (FIG. 6). From a qualitative point of view the difference was striking.
# ICAM1 = ICAM1 immunostaining of endothelium on-chip; details: TNF-α 50 ng/ml, 6 hours
# Source text: ICAM1 is shown with examples identified by white arrows. One example of a DAN stained nuclei is shown inside of a white circle.
# Diverse structural characteristics of blood clots induced by the two experimental stimuli were captured via scanning electron microscopy (SEM) as colored images in FIG. 18D.
# [1] = system: thrombin anti-thrombin complex (TAT); assay: Thrombin anti-thrombin (TAT) ELISA in plasma from chip effluent; details: outflow samples; TNF-α pre-treatment of endothelium, or sCollagen or hu5C8/sCD40L in blood before perfusion
# Procedure: Thrombin converts fibrinogen into fibrin during clot formation, and anti-thrombin plays a role in maintaining homeostasis by inhibiting the effect of thrombin. Formation of TAT in the microdevice confirms that local and intrinsic generation of thrombin, a potent platelet agonist, occurs in the model and that counter regulatory mechanisms for coagulation are retained. Thus, blood sampled from the Vessel-On-Chip was analyzed for thrombin anti-thrombin complex (TAT), an accepted clinical biomarker for procoagulation^48,49. […] An enzyme-linked immunosorbent assay (ELISA) was used to quantify the thrombin anti-thrombin complex (TAT).
# Thrombin-Anti Thrombin (TAT) measurement via ELISA: Thrombin Anti-Thrombin (TAT) levels were analyzed in plasma from blood flowing out of the chip device by removing a sample from the outflow port. Thus TAT levels were evaluated in sample effluents collected from the outflow port of the chip using the Human TAT ELISA Kit (Siemens Healthineers) according to the user manual.
# Blood sampled from the Vessel-On-Chip outflow port was analyzed for thrombin anti-thrombin complex (TAT), a factor released upon activation of the coagulation cascade and one of the biomarkers associated with thrombotic events occurring in patients affected with deep vein thrombosis (DVT) or SLE^45,46. […]
# [2] = system: hu5C8-mediated thrombosis; assay: hu5C8-mediated thrombosis on-chip, FcγRIIa dependence (platelet coverage, fibrin deposition, TAT); details: with sCD40L 10 ng/ml, IV.3 1 μg/ml pre-block of FcγRIIa, or IgG2σ variant in place of hu5C8
# Source text: Recent studies conducted on humanized mice expressing the human Fcγ receptors (FCGR2A) have shown that this receptor plays a role in thrombosis leading to the IC-mediated toxicity^12,16,21. […] In order to investigate if the IC5c8-induced thrombosis that we observed in our vessel-on-chip system also relies on an Fc-mediated mechanism, we used two different tool molecules: IgG2σ and IV.3 (FIG. 25A). The IgG2σ variant of hu5C8 has an engineered Fe region^48 that eliminates affinity for the FcγRIIa, while the monoclonal antibody IV.3 is a blocking antibody binding to FcγRIIa. Briefly, equimolar concentrations of IgG2σ or hu5c8 were incubated with 10 ng/ml of sCD40L for 20 minutes to form ICIgG2σ or IC5c8, respectively.
# Some of the blood samples were treated with IV.3 (1 μg/ml) for 10 minutes to block the FcγRIIa, and then incubated for 20 more minutes with IC5c8. Finally, blood alone (control) or blood incubated with IC5c8, ICIgG2σ or IV.3 was perfused through the biomimetic microfluidic-on-chip for about 10 minutes. We tested 15 donors and all the tested conditions described above were tested in duplicates and analyzed as percentage of platelet coverage based on fluorescence microscopic imaging (FIG. 25B). Five of the donors were also tested for fibrin deposition (FIG. 25C). Finally, effluents plasma obtained from a total of 7 of the donors (including the 5 mentioned before) were used to assess TAT via ELISA (FIG. 25D). […]
# Blood from several human donors were aliquoted into groups for the following treatments: controls (PBS), sCD40L, combined hu5C8/sCD40L, combined hu5C8 (IgG2σ)/sCD40L combined, and combined hu5C8/sCD40L/IV.3. Each condition was tested with a minimum of 3 donors to a maximum of 15 donors, and all conditions were tested in duplicates and analyzed for platelet coverage (FIG. 25B), fibrin deposition (FIG. 25C), or increased formation of TAT measured in the eluates (FIG. 25D). […]
# [3] = TNF-α 50 ng/ml 6 hours endothelial pre-treatment or sCollagen 10 μg/ml in blood, vs blood alone
molecule,measurement,setting,value
N=C(N)NCCCC[C@@H]1NC(=O)CCSSC[C@@H](C(N)=O)NC(=O)[C@@H]2CCCN2C(=O)[C@H](Cc2c[nH]c3ccccc23)NC(=O)[C@H](CC(=O)O)NC(=O)CNC1=O [Eptifibatide] ([Mpa][hArg]GDWPC-NH2; disulfide 1-7),fibrin signal (image analysis),"fibrin; Eptifibatide 2 ug/ml, samples treated with TNF-α, n=4",still detectable
same,"effects of pro-thrombotic conditions (TNF-α, sCollagen) on platelet coverage and fibrin deposition","platelets; adding Eptifibatide, n=4 donors (FIG. 18E)",suppressed
O=C(O)CC(O)(CC(=O)O)C(=O)O [sodium citrate],state of blood collected at the end of each experiment,re-calcified blood,soluble (not clotted)
TNF-α,expression of ICAM1 in the endothelium compared to the control,ICAM1,increased expression
same,levels of TAT,[1],significantly increased; also recorded: elevated
same,fibrin signal intensity,fibrin; [3],increased
same,areas of platelet coverage,platelets; [3],increased
hu5C8: humanized monoclonal IgG1 antibody against CD40L (anti-CD154),fibrin deposition on the endothelium compared to untreated blood,fibrin,no significant treatment-related effects
same,platelet aggregate formation compared to untreated blood,platelets,no significant treatment-related effects
sCD40L: soluble CD40 ligand; recombinant human sCD40 Ligand,fibrin deposition on the endothelium compared to untreated blood,fibrin,no significant treatment-related effects
same,platelet aggregate formation compared to untreated blood,platelets,no significant treatment-related effects
same,"increase in platelet coverage over untreated control, some donors","platelets; sCD40L alone, Example 5",about 2 fold
same,mean increase in platelet coverage compared to controls,"platelets; sCD40L alone, Example 5",not statistically significant
B1,"hu5C8-mediated thrombosis on-chip (platelet coverage, fibrin deposition, TAT)",[2],did not show signs of thrombosis
same,"hu5C8-mediated thrombosis on-chip (platelet coverage, fibrin deposition, TAT)",[2]; listed as IgG2σ,suppressed
same,"hu5C8-mediated thrombosis on-chip (platelet coverage, fibrin deposition, TAT)",[2]; listed as hu5C8-IgG2σ,not detected

# Source: patent US10989721B2, “Additive channels” (Emulate Inc., priority 2016, dated 2021)
